Measured values from patent publication US11040981B2, “Pyrrolotriazine compounds and methods of inhibiting TAM kinases” (Syros Pharmaceuticals, Inc., priority 2017, dated 2021).

What was measured:
[1] = biological target: T1, FLT3 (Homo sapiens, UniProt P36888); test: TR-FRET kinase activity assay, FLT3; assay type: biochemical; conditions: ATP at Km, 60 minutes
T1 sequence (P36888 27-993): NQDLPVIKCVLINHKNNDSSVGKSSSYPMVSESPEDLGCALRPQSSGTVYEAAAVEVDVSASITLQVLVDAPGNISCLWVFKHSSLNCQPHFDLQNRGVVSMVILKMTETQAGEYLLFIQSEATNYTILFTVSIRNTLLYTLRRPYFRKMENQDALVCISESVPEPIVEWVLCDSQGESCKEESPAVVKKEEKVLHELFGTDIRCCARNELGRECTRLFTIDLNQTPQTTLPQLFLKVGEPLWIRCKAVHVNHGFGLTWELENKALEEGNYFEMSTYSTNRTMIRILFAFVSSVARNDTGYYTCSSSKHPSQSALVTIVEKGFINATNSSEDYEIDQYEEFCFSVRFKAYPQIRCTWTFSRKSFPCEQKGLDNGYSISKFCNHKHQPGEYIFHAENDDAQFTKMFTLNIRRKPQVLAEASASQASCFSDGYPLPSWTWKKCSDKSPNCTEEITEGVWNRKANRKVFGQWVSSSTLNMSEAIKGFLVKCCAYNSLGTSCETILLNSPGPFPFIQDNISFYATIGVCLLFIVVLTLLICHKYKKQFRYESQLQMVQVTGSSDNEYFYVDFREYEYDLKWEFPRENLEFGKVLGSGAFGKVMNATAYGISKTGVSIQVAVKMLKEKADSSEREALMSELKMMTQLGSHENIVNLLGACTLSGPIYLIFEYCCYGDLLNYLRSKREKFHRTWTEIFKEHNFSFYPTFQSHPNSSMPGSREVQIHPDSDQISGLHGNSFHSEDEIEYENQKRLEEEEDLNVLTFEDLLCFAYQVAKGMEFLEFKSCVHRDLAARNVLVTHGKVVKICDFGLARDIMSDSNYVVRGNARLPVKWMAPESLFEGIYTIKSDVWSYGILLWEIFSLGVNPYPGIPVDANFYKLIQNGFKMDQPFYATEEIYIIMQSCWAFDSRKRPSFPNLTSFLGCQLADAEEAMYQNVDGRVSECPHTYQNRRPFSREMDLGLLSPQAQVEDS
Method in brief: (§1)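 Inhibition is measured as loss of phospho-peptide formation: kinase, fluorescent tyrosine peptide and compound are combined, ATP is added at Km, and the reaction proceeds 60 min at RT in pH 7.5 HEPES buffer. An EDTA stop and Eu-labelled phospho-specific antibody allow TR-FRET detection for IC50 fitting.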

[2] = biological target: T2, AXL (Homo sapiens, UniProt P30530); test: TR-FRET kinase activity assay, AXL; assay type: biochemical; conditions: ATP at Km, 60 minutes
T2 sequence (P30530 26-894): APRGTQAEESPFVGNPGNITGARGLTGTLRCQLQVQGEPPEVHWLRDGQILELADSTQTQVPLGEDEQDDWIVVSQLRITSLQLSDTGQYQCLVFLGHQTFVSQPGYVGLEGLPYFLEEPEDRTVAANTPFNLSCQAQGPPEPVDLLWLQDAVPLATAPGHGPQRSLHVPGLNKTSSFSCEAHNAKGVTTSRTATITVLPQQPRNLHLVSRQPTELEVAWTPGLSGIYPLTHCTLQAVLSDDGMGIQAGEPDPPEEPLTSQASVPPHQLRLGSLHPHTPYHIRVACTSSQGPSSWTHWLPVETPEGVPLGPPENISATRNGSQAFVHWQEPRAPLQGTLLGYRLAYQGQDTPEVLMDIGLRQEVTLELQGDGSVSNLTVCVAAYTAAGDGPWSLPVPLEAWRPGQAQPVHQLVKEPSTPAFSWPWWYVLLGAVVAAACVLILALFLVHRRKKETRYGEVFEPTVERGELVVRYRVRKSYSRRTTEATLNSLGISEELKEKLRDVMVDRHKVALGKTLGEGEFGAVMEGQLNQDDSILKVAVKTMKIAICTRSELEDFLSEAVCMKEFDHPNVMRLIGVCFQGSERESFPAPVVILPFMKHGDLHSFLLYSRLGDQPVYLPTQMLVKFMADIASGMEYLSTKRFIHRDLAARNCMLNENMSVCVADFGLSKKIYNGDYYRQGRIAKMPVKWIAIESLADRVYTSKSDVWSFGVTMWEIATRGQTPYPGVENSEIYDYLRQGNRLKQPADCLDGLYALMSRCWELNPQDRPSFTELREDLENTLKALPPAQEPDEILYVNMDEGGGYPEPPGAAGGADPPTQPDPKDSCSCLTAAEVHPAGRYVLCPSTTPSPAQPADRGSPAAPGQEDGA
Method in brief: as §1

| Compound | IC50 [1] [nM] | IC50 [2] [nM] |
| --- | --- | --- |
| COC[C@H](C)Nc1ncc2c(-c3ccnc(C)c3)cc([C@H]3CC[C@H](O)CC3)n2n1 [Compound 146] | 1000 to 10000 | 100 to 1000 |
| CNC(=O)c1ccc(-c2cc([C@H]3CC[C@H](O)CC3)n3nc(N[C@@H](C)COC)ncc23)cn1 [Compound 147] | 1000 to 10000 | 100 to 1000 |
| COC[C@H](C)Nc1ncc2c(-c3cnn(CCN4CCOCC4)c3)cc([C@H]3CC[C@H](O)CC3)n2n1 [Compound 153] | 1000 to 10000 | 100 to 1000 |
| COC[C@H](C)Nc1ncc2c(-c3ccc(CN4CCN(c5nccc(C)n5)CC4)cc3)cc([C@H]3CC[C@H](O)CC3)n2n1 [Compound 154, (trans)-4-(2-(((S)-1-methoxypropan-2-yl)amino)-5-(4-((4-(4-methylpyrimidin-2-yl)piperazin-1-yl)methyl)phenyl)pyrrolo[2,1-f][1,2,4]triazin-7-yl)cyclohexanol] | 100 to 1000 | ≤ 100 |
| COC[C@H](C)Nc1ncc2c(-c3ccc(CN4CCN(C)CC4)cc3)cc([C@H]3CC[C@@H](O)CC3)n2n1 [Compound 155] | 100 to 1000 | ≤ 100 |
| COC[C@H](C)Nc1ncc2c(-c3ccc([C@@H](C)N4CCOCC4)cc3)cc([C@H]3CC[C@H](O)CC3)n2n1 [Compound 156] | 100 to 1000 | ≤ 100 |
| COCC(C)Nc1ncc2c(-c3cccc(C(C)N4CCCC4)c3)cc(C3CCC(O)CC3)n2n1 (stereo not shown) [Compound 158] | 100 to 1000 | ≤ 100 |
| CCOC(=O)Cn1cc(-c2cc([C@H]3CC[C@H](O)CC3)n3nc(N[C@@H](C)COC)ncc23)cn1 [Compound 159] | 100 to 1000 | ≤ 100 |
| COC[C@H](C)Nc1ncc2c(-c3cnn(CC(=O)O)c3)cc([C@H]3CC[C@H](O)CC3)n2n1 [Compound 160] | 1000 to 10000 | ≤ 100 |
| COC[C@H](C)Nc1ncc2c(-c3cnn(CC(=O)N4CCOCC4)c3)cc([C@H]3CC[C@H](O)CC3)n2n1 [Compound 162] | 100 to 1000 | ≤ 100 |
| COC[C@H](C)Nc1ncc2c(-c3ccc(CN4CCOCC4)cc3)cc([C@H]3CC[C@@H](O)CC3)n2n1 [Compound 163, (cis)-4-(2-(((S)-1-methoxypropan-2-yl)amino)-5-(4-(morpholinomethyl)phenyl)pyrrolo[2,1-f][1,2,4]triazin-7-yl)cyclohexanol] | 100 to 1000 | ≤ 100 |
| COC[C@H](C)Nc1ncc2c(-c3cnn(CC(C)C)c3)cc([C@H]3CC[C@H](O)CC3)n2n1 [Compound 167] | 100 to 1000 | ≤ 100 |
| COC[C@H](C)Nc1ncc2c(-c3cnccc3C)cc([C@H]3CC[C@H](O)CC3)n2n1 [Compound 168] | 1000 to 10000 | 1000 to 10000 |
| COC[C@H](C)Nc1ncc2c(-c3ccc(C#N)c(F)c3)cc([C@H]3CC[C@H](O)CC3)n2n1 [Compound 169] | 1000 to 10000 | ≤ 100 |
| COC[C@H](C)Nc1ncc2c(C3=CC4CCC(C3)N4)cc([C@H]3CC[C@H](O)CC3)n2n1 (stereo partly shown) [Compound 170] | 1000 to 10000 | ≤ 100 |
| COC[C@H](C)Nc1ncc2c(-c3ccc(C4(C(=O)O)CC4)cc3)cc([C@H]3CC[C@H](O)CC3)n2n1 [Compound 173] | 100 to 1000 | ≤ 100 |
| COC[C@H](C)Nc1ncc2c(-c3cnn(CC(=O)NS(C)(=O)=O)c3)cc([C@H]3CC[C@H](O)CC3)n2n1 [Compound 174] | 1000 to 10000 | 100 to 1000 |
| COC[C@H](C)N(C)c1ncc2c(-c3ccnc(C)c3)cc([C@H]3CC[C@H](O)CC3)n2n1 [Compound 175, (trans)-4-(2-(((S)-1-methoxypropan-2-yl)(methyl)amino)-5-(2-methylpyridin-4-yl)pyrrolo[2,1-f][1,2,4]triazin-7-yl)cyclohexanol] | 1000 to 10000 | 1000 to 10000 |
| COC[C@H](C)N(C)c1ncc2c(-c3ccnc(C)c3)cc([C@H]3CC[C@H](OC)CC3)n2n1 [Compound 176, 7-((trans)-4-methoxycyclohexyl)-N-((S)-1-methoxypropan-2-yl)-N-methyl-5-(2-methylpyridin-4-yl)pyrrolo[2,1-f][1,2,4]triazin-2-amine] | 1000 to 10000 | 1000 to 10000 |

The remaining lines, values ahead:

| IC50 [1] [nM] | IC50 [2] [nM] | Compound |
| --- | --- | --- |
| 100 to 1000 | 100 to 1000 | COCC(C)Nc1ncc2c(-c3ccc(C(C)N4CCOCC4)cc3)cc(C3CCC(O)CC3)n2n1 (mixture of isomers) [Compound 180] |
| 100 to 1000 | ≤ 100 | CC(Nc1ncc2c(-c3ccc(CN4CCN(C)CC4)cc3)cc([C@H]3CC[C@H](O)CC3)n2n1)C(F)F (mixture of isomers) [Compound 148] |
| 100 to 1000 | 100 to 1000 | CCCCC[C@H](C)Nc1ncc2c(-c3ccc(S(=O)(=O)N4CCOCC4)cc3)cc([C@H]3CC[C@H](O)CC3)n2n1 [Compound 102, (1S,4r)-4-(2-((S)-heptan-2-ylamino)-5-(4-(morpholinosulfonyl)phenyl)pyrrolo[2,1-f][1,2,4]triazin-7-yl)cyclohexanol] |
| 100 to 1000 | ≤ 100 | COC[C@H](C)Nc1ncc2c(-c3ccc(C(=O)N4CCN(C)CC4)cc3)cc([C@H]3CC[C@H](O)CC3)n2n1 [Compound 144] |
| ≤ 100 | ≤ 100 | CC(CC#N)Nc1ncc2c(-c3ccc(CN4CCN(C)CC4)cc3)cc(C3CCC(O)CC3)n2n1 (stereo not shown) [Compound 145] |
| 100 to 1000 | 100 to 1000 | COCC1(Nc2ncc3c(-c4ccc(CN5CCN(C)CC5)cc4)cc(C4CCC(O)CC4)n3n2)CC1 (stereo not shown) [Compound 149] |
| 100 to 1000 | ≤ 100 | COC[C@H](C)Nc1ncc2c(-c3ccc(CN4CCN(C(C)=O)CC4)cc3)cc([C@H]3CC[C@H](O)CC3)n2n1 [Compound 150] |
| 100 to 1000 | 100 to 1000 | COC[C@H](C)Nc1ncc2c(-c3cnn(C4CCOCC4)c3)cc([C@H]3CC[C@H](O)CC3)n2n1 [Compound 151] |
| 100 to 1000 | ≤ 100 | COC[C@H](C)Nc1ncc2c(-c3cnn(C)c3)cc([C@H]3CC[C@H](O)CC3)n2n1 [Compound 152] |
| ≤ 100 | ≤ 100 | COC[C@H](C)Nc1ncc2c(-c3ccc([C@H](C)N4CCOCC4)cc3)cc([C@H]3CC[C@H](O)CC3)n2n1 [Compound 157] |
| ≤ 100 | 100 to 1000 | COCCC(C)Nc1ncc2c(-c3ccc(CN4CCCC4)cc3)cc(C3CCC(O)CC3)n2n1 (stereo not shown) [Compound 161] |
| ≤ 100 | ≤ 100 | COCC(C)Nc1ncc2c(-c3ccc(C(C)N4CCCC4)cc3)cc(C3CCC(O)CC3)n2n1 (stereo not shown) [Compound 164] |
| ≤ 100 | ≤ 100 | COC[C@H](C)Nc1ncc2c(-c3ccc([C@H](C)N4CCCC4)cc3)cc([C@H]3CC[C@H](O)CC3)n2n1 [Compound 165] |
| ≤ 100 | ≤ 100 | COCC(C)Nc1ncc2c(-c3ccc(C(C)N4CCCC4)cc3)cc(C3CCC(O)CC3)n2n1 (stereo not shown) [Compound 166] |
| ≤ 100 | ≤ 100 | COC[C@H](C)Nc1ncc2c(-c3ccc(C4(C(=O)N5CCOCC5)CC4)cc3)cc([C@H]3CC[C@H](O)CC3)n2n1 [Compound 171] |
| ≤ 100 | ≤ 100 | COCC(C)Nc1ncc2c(-c3ccc(C4(C(=O)N5CCS(=O)(=O)CC5)CC4)cc3)cc(C3CCC(O)CC3)n2n1 (stereo not shown) [Compound 172] |
